Test results taken from BindingDB's records for doi:10.1016/0024-3205(84)90540-x (Schering-Plough, 1984).
Counter-ions that a name gives are not always drawn.

Columns and labels:
D(2) dopamine receptor = D(2) dopamine receptor (Rattus norvegicus, UniProt P61169)
D(1A) dopamine receptor = D(1A) dopamine receptor (Rattus norvegicus, UniProt P18901)
D(1A) dopamine receptor, sequence (P18901 whole entry): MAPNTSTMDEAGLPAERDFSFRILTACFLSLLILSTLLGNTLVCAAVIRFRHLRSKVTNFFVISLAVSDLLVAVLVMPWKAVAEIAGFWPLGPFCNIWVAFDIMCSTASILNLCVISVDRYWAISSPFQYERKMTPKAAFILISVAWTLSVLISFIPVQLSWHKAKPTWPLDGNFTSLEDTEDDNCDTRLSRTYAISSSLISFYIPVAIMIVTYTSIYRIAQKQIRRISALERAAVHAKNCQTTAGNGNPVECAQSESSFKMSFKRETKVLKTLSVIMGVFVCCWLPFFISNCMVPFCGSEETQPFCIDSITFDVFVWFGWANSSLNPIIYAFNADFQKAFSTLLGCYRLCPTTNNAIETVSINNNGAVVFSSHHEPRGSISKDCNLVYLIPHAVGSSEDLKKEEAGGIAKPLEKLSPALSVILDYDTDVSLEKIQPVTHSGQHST

D(2) dopamine receptor, sequence (P61169 whole entry): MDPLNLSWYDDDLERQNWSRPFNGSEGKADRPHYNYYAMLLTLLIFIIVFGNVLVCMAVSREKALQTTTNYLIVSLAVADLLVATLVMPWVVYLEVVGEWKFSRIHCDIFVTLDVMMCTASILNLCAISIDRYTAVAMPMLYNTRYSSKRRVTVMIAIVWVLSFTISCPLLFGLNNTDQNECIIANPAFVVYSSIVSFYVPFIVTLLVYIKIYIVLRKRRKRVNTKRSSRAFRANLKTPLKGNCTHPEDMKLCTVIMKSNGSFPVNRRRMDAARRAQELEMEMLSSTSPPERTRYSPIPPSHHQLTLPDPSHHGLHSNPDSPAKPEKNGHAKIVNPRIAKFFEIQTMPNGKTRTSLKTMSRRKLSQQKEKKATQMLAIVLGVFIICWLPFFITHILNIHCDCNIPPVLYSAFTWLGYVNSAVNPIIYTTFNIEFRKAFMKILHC

With `CC[C@@H](CO)NC(=O)[C@@H]1C=C2c3cccc4c3c(cn4C)C[C@H]2N(C)C1` the Ki (D(2) dopamine receptor) was 0.116 µM and the Ki (D(1A) dopamine receptor) was 0.217 µM.

Work on `OCCN1CCN(CCCN2c3ccccc3Sc3ccc(C(F)(F)F)cc32)CC1` [2-[4-[3-[2-(trifluoromethyl)phenothiazin-10-yl]propyl]piperazin-1-yl]ethanol;hydrochloride] yielded a Ki (D(1A) dopamine receptor) of 0.0112 µM.

In the case of `O=C(c1ccc(F)cc1)C1CCN(CCn2c(=O)[nH]c3ccccc3c2=O)CC1` [3-(2-{4-[(4-fluorophenyl)carbonyl]piperidin-1-yl}ethyl)-1,2,3,4-tetrahydroquinazoline-2,4-dione], the Ki (D(2) dopamine receptor) is reported as 0.397 µM and the Ki (D(1A) dopamine receptor) is reported as 1.01 µM.

In the case of `CN1C2CC(OC(=O)C(CO)c3ccccc3)CC1C1OC12` (stereo unspecified) [3-hydroxy-2-phenyl-propionic acid 9-methyl-3-oxa-9-aza-tricyclo[3.3.1.0*2,4*]non-7-yl ester], the Ki (D(2) dopamine receptor) is reported as > 10 µM and the Ki (D(1A) dopamine receptor) is reported as > 10 µM.

`OCCN1CCN(CCCN2c3ccccc3Sc3ccc(Cl)cc32)CC1` [4-[3-(2-chlorophenothiazin-10-yl)propyl]-1-piperazineethanol] gave a Ki (D(2) dopamine receptor) of 0.0013 µM and a Ki (D(1A) dopamine receptor) of 0.0299 µM.

In the case of `NCCCC(=O)O` [4-amino-n-[2,3-3H]butyric acid], the Ki (D(2) dopamine receptor) is reported as > 10 µM and the Ki (D(1A) dopamine receptor) is reported as > 10 µM.

With `OCCC1CCN(CCC=C2c3ccc(F)cc3Sc3ccc(C(F)(F)F)cc32)CC1` [CAS_60197-32-2] the Ki (D(2) dopamine receptor) was 0.001 µM and the Ki (D(1A) dopamine receptor) was 0.0029 µM.

For `N[C@@H](CCC(=O)O)C(=O)O` [L-Glutamic acid], the Ki (D(2) dopamine receptor) was > 10 µM and the Ki (D(1A) dopamine receptor) was > 10 µM.

`NCC(O)c1ccc(O)c(O)c1` (stereo not drawn) [Noradrenaline,(+)] was tested, and the Ki (D(2) dopamine receptor) was > 10 µM and the Ki (D(1A) dopamine receptor) was > 10 µM.

`NCCc1c[nH]cn1` [[3H]histamine] was tested, and the Ki (D(2) dopamine receptor) was > 10 µM and the Ki (D(1A) dopamine receptor) was > 10 µM.

`OCCC1CCN(CC/C=C2\c3ccc(F)cc3Sc3ccc(C(F)(F)F)cc32)CC1` [trans piflutixol-(E)] showed a Ki (D(2) dopamine receptor) of 0.073 µM and a Ki (D(1A) dopamine receptor) of 0.095 µM.
